The values that follow are results of earlier work, collected in patent US20190364946A1, “POWDERS AND TABLETS COMPRISING OMEGA-3 FATTY ACID DERIVATIVES AND METHODS FOR THEIR PRODUCTION” (OMEGATRI AS, priority 2016, published 2019).

The conditions of this data set: for Surfactants HLB: HLB of added surfactant or surfactant mixture; for HLB value: from commercial and scientific sources.

As for Span 80, the “Surfactants HLB” value was 4.3. As for Span 85, the “Surfactants HLB” value is 1.8. Take sorbitan monostearate: the HLB value was 4.7. Consider sorbitan stearate, for which the HLB value is listed as 4.7.
